Experimental data from ChEMBL document CHEMBL3875143, “Novel multi-target-directed ligands for Alzheimer's disease: Combining cholinesterase inhibitors and 5-HT6 receptor antagonists. Design, synthesis and biological evaluation” (Eur J Med Chem, 2016).
pIC50, pKi: −log10 of the molar value. Activity calls are given as the source filed them. No cut-off for these calls is given here.

How the values were obtained:
[1] = PAMPA, 2 h
Acetylcholinesterase [2] = target: Acetylcholinesterase (Homo sapiens, UniProt P22303); assay: Inhibition of human recombinant AChE preincubated for 5 mins followed by acetylthiocholine iodide substrate addition measured after 5 mins by Ellman's method
Acetylcholinesterase [3] = target: Acetylcholinesterase (Electrophorus electricus, UniProt O42275)
Description: Inhibition of electric eel AChE preincubated for 5 mins followed by acetylthiocholine iodide substrate addition measured after 5 mins by Ellman's method

Cholinesterase [4] = target: Cholinesterase (Equus caballus, UniProt P81908)
Description: Inhibition of equine serum BuChE preincubated for 5 mins followed by butyrylthiocholine iodide substrate addition measured after 5 mins by Ellman's method

[5] = target: 5-hydroxytryptamine receptor 6 (Homo sapiens, UniProt P50406); assay: biochemical
Description: Displacement of [3H]-LSD from human recombinant 5-HT6 receptor expressed in CHOK1 cell membranes measured after 60 mins by scintillation counter

[6] = target: Cholinesterase (Equus caballus) (UniProt P81908); assay: Inhibition of equine serum BuChE at 10 uM preincubated for 5 mins followed by butyrylthiocholine iodide substrate addition measured after 5 mins by Ellman's method relative to control
[7] = Reduction of spontaneous locomotor activity below baseline in Wistar rat at 10 mg/kg, ip in presence of scopolamine by open field assay; type: ADME, organism-based; conditions: in vivo
Cholinesterase [8] = target: Cholinesterase (Homo sapiens, UniProt P06276); assay: Inhibition of human recombinant BuChE preincubated for 5 mins followed by butyrylthiocholine iodide substrate addition measured after 5 mins by Ellman's method
Rattus norvegicus [9] = assay: Reduction in spontaneous locomotor activity in ip dosed Wistar rat pretreated for 30 mins by open field assay; type: functional, organism-based
Rattus norvegicus [10] = assay: Reduction in spontaneous locomotor activity in Wistar rat at 10 mg/kg, ip pretreated for 30 to 180 mins by open field assay; type: functional, organism-based
[11] = target: Acetylcholinesterase (Electrophorus electricus) (UniProt O42275); assay: Non-competitive inhibition of electric eel AChE at 30 to 120 nM using varying levels of acetylthiocholine iodide substrate preincubated for 5 mins followed by substrate addition measured after 5 mins by Line-weaver burk plot method
Rattus norvegicus [12] = assay: Reversal of scopolamine-induced hyperlocomotion in ip dosed Wistar rat; type: functional, organism-based
[13] = target: Cholinesterase (Equus caballus) (UniProt P81908); conditions: 9 to 30 nM

Chain of 5-hydroxytryptamine receptor 6 (P50406 whole entry): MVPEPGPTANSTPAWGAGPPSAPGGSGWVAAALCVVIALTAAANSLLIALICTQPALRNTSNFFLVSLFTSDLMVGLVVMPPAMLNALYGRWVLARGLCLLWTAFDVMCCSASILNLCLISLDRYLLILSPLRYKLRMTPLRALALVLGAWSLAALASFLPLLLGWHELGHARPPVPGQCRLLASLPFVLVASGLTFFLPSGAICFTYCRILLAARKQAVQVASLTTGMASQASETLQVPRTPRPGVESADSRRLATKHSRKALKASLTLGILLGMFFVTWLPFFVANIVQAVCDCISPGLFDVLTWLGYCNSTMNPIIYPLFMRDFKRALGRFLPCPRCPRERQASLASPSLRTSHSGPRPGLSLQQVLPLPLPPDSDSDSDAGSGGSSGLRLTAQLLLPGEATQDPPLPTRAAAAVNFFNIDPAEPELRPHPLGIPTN
Chain of Cholinesterase (Equus caballus) (P81908 whole entry): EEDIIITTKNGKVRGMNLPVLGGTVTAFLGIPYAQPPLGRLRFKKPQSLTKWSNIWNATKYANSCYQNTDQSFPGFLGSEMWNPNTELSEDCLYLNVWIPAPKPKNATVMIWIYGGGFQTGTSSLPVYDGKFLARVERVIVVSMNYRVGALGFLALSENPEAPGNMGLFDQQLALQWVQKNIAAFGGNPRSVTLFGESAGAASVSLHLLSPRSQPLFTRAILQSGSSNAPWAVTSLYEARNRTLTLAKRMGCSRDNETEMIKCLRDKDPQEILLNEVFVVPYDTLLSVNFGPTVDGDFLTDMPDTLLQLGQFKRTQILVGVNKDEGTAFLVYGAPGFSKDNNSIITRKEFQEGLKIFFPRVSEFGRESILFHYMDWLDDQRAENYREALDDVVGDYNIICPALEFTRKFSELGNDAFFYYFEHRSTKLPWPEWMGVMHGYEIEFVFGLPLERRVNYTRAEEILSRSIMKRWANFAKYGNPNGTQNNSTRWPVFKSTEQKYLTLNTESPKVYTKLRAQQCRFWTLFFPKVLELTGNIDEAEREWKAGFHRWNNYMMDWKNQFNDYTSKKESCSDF
Chain of Cholinesterase (Equus caballus, UniProt P81908) (P81908 whole entry): as above
Chain of Acetylcholinesterase (Electrophorus electricus, UniProt O42275) (O42275 whole entry): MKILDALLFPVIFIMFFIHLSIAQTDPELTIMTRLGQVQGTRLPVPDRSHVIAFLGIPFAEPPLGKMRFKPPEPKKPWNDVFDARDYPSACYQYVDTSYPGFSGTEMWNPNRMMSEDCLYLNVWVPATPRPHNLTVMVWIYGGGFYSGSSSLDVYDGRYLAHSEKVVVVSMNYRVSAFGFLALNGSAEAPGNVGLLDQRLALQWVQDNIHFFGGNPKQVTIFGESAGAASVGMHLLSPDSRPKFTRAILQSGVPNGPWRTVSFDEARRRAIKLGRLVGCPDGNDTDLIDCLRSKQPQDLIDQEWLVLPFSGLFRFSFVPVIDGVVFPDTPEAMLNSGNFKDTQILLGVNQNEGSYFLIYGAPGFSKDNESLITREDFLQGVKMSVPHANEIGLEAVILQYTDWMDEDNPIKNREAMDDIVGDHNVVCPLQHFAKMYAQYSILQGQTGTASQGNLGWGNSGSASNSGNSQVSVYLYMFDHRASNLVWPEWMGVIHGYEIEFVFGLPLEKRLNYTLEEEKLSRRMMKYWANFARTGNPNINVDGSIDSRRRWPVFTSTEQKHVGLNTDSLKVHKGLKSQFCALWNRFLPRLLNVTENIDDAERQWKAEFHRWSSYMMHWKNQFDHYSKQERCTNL
Chain of Acetylcholinesterase (Homo sapiens, UniProt P22303) (P22303 whole entry): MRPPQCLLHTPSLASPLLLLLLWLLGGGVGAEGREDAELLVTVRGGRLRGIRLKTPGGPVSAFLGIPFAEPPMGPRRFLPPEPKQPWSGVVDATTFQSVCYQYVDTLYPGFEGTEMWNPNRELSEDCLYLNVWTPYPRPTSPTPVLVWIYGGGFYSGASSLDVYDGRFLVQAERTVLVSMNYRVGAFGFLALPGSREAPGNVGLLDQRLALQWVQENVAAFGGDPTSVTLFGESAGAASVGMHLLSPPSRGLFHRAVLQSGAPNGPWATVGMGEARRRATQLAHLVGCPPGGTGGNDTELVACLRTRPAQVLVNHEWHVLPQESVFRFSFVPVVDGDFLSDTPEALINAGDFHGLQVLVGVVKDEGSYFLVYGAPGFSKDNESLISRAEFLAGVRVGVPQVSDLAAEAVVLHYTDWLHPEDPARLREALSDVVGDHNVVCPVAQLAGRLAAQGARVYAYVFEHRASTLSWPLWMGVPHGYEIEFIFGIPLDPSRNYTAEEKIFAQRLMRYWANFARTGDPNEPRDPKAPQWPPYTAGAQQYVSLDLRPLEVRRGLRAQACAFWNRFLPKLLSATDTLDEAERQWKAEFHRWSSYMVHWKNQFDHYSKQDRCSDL
Chain of Acetylcholinesterase (Electrophorus electricus) (O42275 24-633 limits assumed): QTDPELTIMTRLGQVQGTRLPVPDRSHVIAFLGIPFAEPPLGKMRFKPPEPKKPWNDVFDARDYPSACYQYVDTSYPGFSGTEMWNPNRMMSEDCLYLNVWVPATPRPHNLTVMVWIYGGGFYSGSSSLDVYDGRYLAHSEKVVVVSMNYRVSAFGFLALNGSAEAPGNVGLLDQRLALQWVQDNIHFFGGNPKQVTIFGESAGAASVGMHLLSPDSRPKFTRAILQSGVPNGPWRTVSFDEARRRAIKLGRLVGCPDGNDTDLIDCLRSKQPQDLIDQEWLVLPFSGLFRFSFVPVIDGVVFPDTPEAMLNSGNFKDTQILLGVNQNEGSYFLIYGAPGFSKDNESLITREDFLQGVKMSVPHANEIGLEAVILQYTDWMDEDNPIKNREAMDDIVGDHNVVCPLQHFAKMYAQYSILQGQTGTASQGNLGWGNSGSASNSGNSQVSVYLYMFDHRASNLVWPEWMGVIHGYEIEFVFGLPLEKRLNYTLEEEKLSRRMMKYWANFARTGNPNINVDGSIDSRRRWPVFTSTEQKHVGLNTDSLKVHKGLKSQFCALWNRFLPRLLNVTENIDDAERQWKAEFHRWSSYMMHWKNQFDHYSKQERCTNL
Chain of Cholinesterase (Homo sapiens, UniProt P06276) (P06276 whole entry): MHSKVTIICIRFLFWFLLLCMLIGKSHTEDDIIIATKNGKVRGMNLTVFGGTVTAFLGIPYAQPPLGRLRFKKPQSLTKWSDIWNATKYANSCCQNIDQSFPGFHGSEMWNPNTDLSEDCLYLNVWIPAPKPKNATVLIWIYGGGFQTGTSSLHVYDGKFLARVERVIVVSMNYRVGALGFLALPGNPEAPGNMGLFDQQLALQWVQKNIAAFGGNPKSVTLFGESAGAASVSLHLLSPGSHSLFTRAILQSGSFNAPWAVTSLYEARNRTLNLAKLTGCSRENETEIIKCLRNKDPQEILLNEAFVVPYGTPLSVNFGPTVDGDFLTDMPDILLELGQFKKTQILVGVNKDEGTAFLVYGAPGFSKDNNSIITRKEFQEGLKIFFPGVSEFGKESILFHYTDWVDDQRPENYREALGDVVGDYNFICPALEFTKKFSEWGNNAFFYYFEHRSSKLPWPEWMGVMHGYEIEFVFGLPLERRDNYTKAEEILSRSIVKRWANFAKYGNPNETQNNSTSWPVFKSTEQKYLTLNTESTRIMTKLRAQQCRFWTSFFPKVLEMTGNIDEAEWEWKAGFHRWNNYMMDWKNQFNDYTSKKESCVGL

Structure (SMILES) | pIC50 (Acetylcholinesterase [3]) | pIC50 (Cholinesterase [4]) | pKi [5] | further results
CC(=O)[C@H]1CC[C@H]2[C@@H]3CCC4=CC(=O)CC[C@]4(C)[C@H]3CC[C@]12C [PROGESTERONE] | – | – | – | logPeff [1]: -3.8
O=S(=O)(c1ccccc1)n1ccc2c(N3CCN(CCCCCCCNc4c5c(nc6ccccc46)CCCC5)CC3)cccc21 | 7.82 | 8.00 | 7.44 | pIC50 (Acetylcholinesterase [2]): 8.21
CN(CCCCCN1CCN(c2cccc3c2ccn3S(=O)(=O)c2ccccc2)CC1)Cc1ccccc1 | – | 5.51 | 8.00 | –
CN(CCCN1CCN(c2cccc3c2ccn3S(=O)(=O)c2ccccc2)CC1)Cc1ccccc1 | – | – | 8.00 | inhibition [6]: 27.8%
O=S(=O)(c1ccccc1)n1ccc2c(N3CCN(CCCNc4c5c(nc6ccccc46)CCCC5)CC3)cccc21 | 7.92 | 7.85 | 8.22 | pIC50 (Acetylcholinesterase [2]): 8.01
O=S(=O)(c1ccccc1)n1ccc2c(N3CCN(CCNCc4ccccc4)CC3)cccc21 | – | 5.88 | 7.92 | –
O=S(=O)(c1ccccc1)n1ccc2c(N3CCN(CCCNCc4ccccc4)CC3)cccc21 | – | 6.22 | 7.80 | –
O=S(=O)(c1ccccc1)n1ccc2c(N3CCN(CCCCNCc4ccccc4)CC3)cccc21 | – | 5.66 | 8.10 | –
CN(CCN1CCN(c2cccc3c2ccn3S(=O)(=O)c2ccccc2)CC1)Cc1ccccc1 | – | 5.71 | 7.82 | –
O=S(=O)(c1ccccc1)n1ccc2c(N3CCN(CCCCCCNc4c5c(nc6ccccc46)CCCC5)CC3)cccc21 | 7.34 | 8.09 | 8.70 | Activity [7]: Non-Toxic; pIC50 (Cholinesterase [8]): 7.53; pIC50 (Acetylcholinesterase [2]): 7.89; Activity (Rattus norvegicus [9]): Dose-dependent effect; Activity (Rattus norvegicus [10]): Active; inhibition [11]: Active; Activity (Rattus norvegicus [12]): Dose-dependent effect; inhibition [13]: Active
O=S(=O)(c1ccccc1)n1ccc2c(N3CCNCC3)cccc21 | – | – | – | inhibition [6]: 45.8%
CN(CCCCN1CCN(c2cccc3c2ccn3S(=O)(=O)c2ccccc2)CC1)Cc1ccccc1 | – | 5.21 | 8.40 | –
O=S(=O)(c1ccccc1)n1ccc2c(N3CCN(CCCCCNCc4ccccc4)CC3)cccc21 | 5.36 | 5.78 | 8.10 | –
CC(C)NCC(O)COc1cccc2ccccc12 (stereo unspecified) [PROPRANOLOL] | – | – | – | logPeff [1]: -3.7
O=S(=O)(c1ccccc1)n1ccc2c(N3CCN(CCCCNC4CCN(Cc5ccccc5)CC4)CC3)cccc21 | – | 5.66 | 7.80 | –
O=S(=O)(c1ccccc1)n1ccc2c(N3CCN(CCNC4CCN(Cc5ccccc5)C4)CC3)cccc21 (stereo unspecified) | – | 5.47 | 7.89 | –
O=S(=O)(c1ccccc1)n1ccc2c(N3CCN(CCCCCCNCc4ccccc4)CC3)cccc21 | – | 5.62 | 8.70 | –
O=S(=O)(c1ccccc1)n1ccc2c(N3CCN(CCCNC4CCN(Cc5ccccc5)CC4)CC3)cccc21 | – | 5.49 | 8.70 | –
O=S(=O)(c1ccccc1)n1ccc2c(N3CCN(CCNc4c5c(nc6ccccc46)CCCC5)CC3)cccc21 | 8.12 | 7.77 | 8.00 | pIC50 (Acetylcholinesterase [2]): 7.36
O=S(=O)(c1ccccc1)n1ccc2c(N3CCN(CCNC4CCN(Cc5ccccc5)CC4)CC3)cccc21 | – | 4.98 | 7.41 | –
O=S(=O)(c1ccccc1)n1ccc2c(N3CCN(CCCCCCCCNc4c5c(nc6ccccc46)CCCC5)CC3)cccc21 | 8.15 | 7.91 | 7.44 | pIC50 (Acetylcholinesterase [2]): 8.89
O=S(=O)(c1ccccc1)n1ccc2c(N3CCN(CCCCCNc4c5c(nc6ccccc46)CCCC5)CC3)cccc21 | 7.24 | 7.67 | 8.10 | pIC50 (Acetylcholinesterase [2]): 7.74
